Measurements: patent US20130071936A1, “FRET-BASED ZINC(II) ION INDICATOR” (The Florida State University Research Foundation, Inc., priority 2011, published 2013)
Like-named read-outs stand apart in the source and are kept apart here. Marks after values point to notes of the source that are not given here.

Legend:
[1] = Spectroscopic data (absorption, emission, fluorescence quantum yield) in CH3CN; assay type: physicochemical; conditions: for λabs (A band) / λabs (D band) / λem / ∈/10^3 (A band) / ∈/10^3 (D band): complexes: Zn(ClO4)2 10 equiv.
Procedure: Reagents and solvents were purchased from various commercial sources and used without further purification unless otherwise stated. CH3CN (OmniSolv, EMD) were directly used in titration experiments without purification. All reactions were carried out in oven- or flame-dried glassware. Analytical thin-layer chromatography (TLC) was performed using pre-coated TLC plates with silica gel 60 F254 (EMD) or with aluminum oxide 60 F254 neutral (EMD). Flash column chromatography was performed using 40-63 μm (230-400 mesh ASTM) silica gel (EMD) or alumina (80-200 mesh, pH 9-10, EMD) as the stationary phases. Silica and alumina gel was flame-dried under vacuum to remove absorbed moisture before use. ^1H NMR spectra were recorded at 300 MHz on a Varian Mercury spectrometer. ^13C NMR spectra were recorded at 125 MHz, on a Bruker Avance spectrometer. All chemical shifts were reported in δ units relative to tetramethylsilane. High resolution mass spectra were obtained at the Mass Spectrometry Laboratory at Florida State University. ESI spectra were obtained on a JEOL AccuTOF spectrometer. Spectrophotometric and fluorometric titrations were conducted on a Varian Cary 100 Bio UV-Visible Spectrophotometer and a Varian Cary Eclipse Fluorescence Spectrophotometer, respectively, with a 1-cm standard quartz cell. The fluorescence quantum yield was determined by comparison of the integrated area of corrected emission spectrum with reference of N,N′-di-n-octyl-2,6-di-n-octylamino-1,4,5,8-naphthalenetetracarboxylic acid diimide (φf=0.53 in CH2Cl2) as the reference by the literature method. See Thalacker, C.; Röger, C.; Würthner, F. J. Org.

[2] = system: mitochondrial zinc(II) in HeLa (S3) cells; experiment: Zinc(II) supplementation experiment, fluorescence microscopy; assay type: cell-based; conditions: indicator 1.8 μM, 50 μM ZnCl2, λex 405 nm, λem 580-680 nm
Procedure: FIGS. 15A and 15B are fluorescence images of HeLa (S3) cells incubated with compound (5) (1.8 μM). FIG. 15A depicts no zinc(II) added, and FIG. 15B depicts fluorescence in the presence of 50 μM ZnCl2. A 405 nm diode laser line was used for excitation. λem 580-680 nm. Scale bar: 10 μm. The DIC images are included in FIGS. 16A and 16B.
FIGS. 16A and 16B are DIC and fluorescence overlay images of HeLa (S3) cells incubated with compound (5) (1.8 μM). FIG. 16A depicts no zinc(II) added, and FIG. 16B depicts emission in the presence of 50 μM ZnCl2. A 405 nm diode laser line was used for excitation. λem 580-680 nm. Scale bar: 10 μm.
See also FIGS. 16A and 16B. […] The addition of zinc(II) ion indicator (5) to the group of very few synthetic indicators that target mitochondrial zinc(II) shall aid the characterization of mitochondrial zinc(II) which is intimately correlated to the chemistry of reactive oxygen species (ROS). See E. Tomat, E. M. Nolan, J. Jaworski and S. J. Lippard, J. Am. Chem. Soc., 2008, 130, 15776; G. Masanta, C. S. Lim, H. J. Kim, J. H. Han, H. M. Kim and B. R. Cho, J. Am. Chem. Soc., 2011, 133, 5698; Y. Qin, P. J. Dittmer, J. G. Park, K. B. Jansen and A. E. Palmer, Proc. Nat. Acad. Sci. USA, 2011, 108, 7351; and S. L. Sensi, D. Ton-That, P. G. Sullivan, E. A. Jonas, K. R. Gee, L. K. Kaczmarek and J. H. Weiss, Proc. Natl. Acad. Sci. U.S.A., 2003, 100, 6157. […]

[3] = system: mitochondria of HeLa (S3) cells transfected with mCerulean3 TOMM-20; experiment: Colocalization by confocal fluorescence microscopy with mCerulean3 TOMM-20; assay type: cell-based
Procedure: FIGS. 13A through 13F are confocal fluorescence images of living HeLa (S3) cells transfected with mCerulean3 TOMM-20 that were incubated with zinc(II) ion indicator (5) (1.8 μM, A-C) and zinc(II) ion indicator (4) (6.0 μM, D-F) for 30 min. FIGS. 13A (zinc(II) ion indicator (5)) and 13D (zinc(II) ion indicator (4)) depict the green channel, λex 405 nm, λem 425-475 nm. FIGS. 13B (zinc(II) ion indicator (5)) and 13E (zinc(II) ion indicator (4)) depict the red channel, λex 543 nm, λem 580-680 nm. FIGS. 13C (zinc(II) ion indicator (5)) and 13F (zinc(II) ion indicator (4)) depict the merged image. Scale bar: 10 μm.
FIGS. 14A through 14F are confocal fluorescence images of live HeLa (S3) cells transfected with mCer3 TOMM20 that were incubated with FRET acceptor compound (3) (9.0 μM, A-C) and FRET acceptor compound (2) (52 μM, D-F) for 30 min. FIGS. 14A (FRET acceptor compound (3)) and 14D (FRET acceptor compound (2)) depict the green channel, λex 405 nm, λem 425-475 nm. FIGS. 14B (FRET acceptor compound (3)) and […] (FRET acceptor compound (2)) depict the red channel, λex 543 nm, λem 580-680 nm. FIGS. 14C (FRET acceptor compound (3)) and […] (FRET acceptor compound (2)) depict the merged image. Scale bar: 10 μm.
The colocalization properties of red-emitting compounds (2-5) were studied using HeLa (S3) cells transfected with mCerulean3 TOMM-20, a cyan fluorescent protein (CFP) fused with a mitochondrial targeting sequence whose emission is shown in the green channel. See FIG. 13A for emission spectrum from cells incubated with TPP-containing zinc(II) ion indicator (5), and see FIG. 13D for emission spectrum from cells incubated with zinc(II) ion indicator (4). […] The overall intracellular fluorescence intensity from zinc(II) ion indicator (4) is low, which is consistent with the observed weak fluorescence of the NDI fluorophore in aqueous solutions.
The localization properties of (2-5) were determined via costaining experiments using mCerulean3 TOMM-20, a mitochondrial-specific fusion of the cyan fluorescent protein (CFP) mCerulean3. mCerulean3 is a bright monomeric FP with an emission maximum of 475 nm. HeLa S3 cells were seeded onto Bioptechs Delta-T dishes 48 h prior to experimentation, then transfected about 24 h prior to loading the indicator using an Effectene Transfection Reagent Kit (Qiagen) and 1 μg of DNA. A 1:1 mixture of Dulbecco's modified Eagle's medium and Ham's F-12 (Invitrogen) supplemented with 12.5% fetal bovine serum was used as the culture medium. On the day of experimentation cells were rinsed twice with media and incubated with indicator 5 (1.8 μM) for 30 min. Prior to imaging cells were again rinsed twice with media, then provided with 1 mL of fresh media.
All cells were imaged using an Olympus Fluoview FV1000 confocal laser scanning microscope with an Olympus PLAPO 60× oil-immersion objective (NA=1.4). During experimentation cells were maintained at 37° C. and 5.0% CO2 using a Bioptechs Delta T4 Culture Dish Controller. Individual cells were imaged sequentially in two channels, using a 543 nm Helium-Neon laser line to excite the indicator and a 405 nm diode laser line to excite the FP. Cells were selected by the quality of FP expression, as the indicators tended to load homogenously into the cells. All data was collected using FluoView Software (Olympus). Laser power and detection settings were optimized for each image to fill LUTs. A pinhole size of 200 μm was used for each image. […]

[4] = pKa and effect of pH on emission; assay type: physicochemical
Procedure: FIG. 10 is a graph depicting the effect of pH on emission spectra of zinc(II) ion chelated FRET donor compound (1) (pH=2.7-10.4).
The titration experiments using zinc(II) ion indicator (4) were also carried out in an aqueous/organic mixed solvent (1:9 MOPS buffer (pH 7.2)/CH3CN). […] (FIG. 9). Comparing to the observations in CH3CN, the fluorescence is rather dim. The loss of fluorescence can be explained by the hydrogen bonding interaction between the protic solvent and the carbonyl groups on NDI, which provides a non-radiative deactivation pathway. See F. Würthner, S. Ahmed, C. Thalacker and T. Debaerdemaeker, Chem. Eur. J., 2002, 8, 4742. […] By extension, the fluorescence of zinc(II) ion indicators (4) and (5) would not be affected by the fluctuations of pH within the physiological range.

[5] = CH3CN, data taken from Younes et al. J. Org. Chem. 2009, cited from earlier work
[6] = λex = 400 nm, Zn(ClO4)2 10 equiv.

| Compound | λabs (A band) [1] | λabs (D band) [1] | λem [1] [nm] | ∈/10^3 (A band) [1] | ∈/10^3 (D band) [1] | φf ([1]; λex = 565 nm) | λabs [1] [nm] | ∈/10^3 [1] | other results |
| --- | --- | --- | --- | --- | --- | --- | --- | --- | --- |
| COCCCNc1cc2c3c(c(NCCOc4ccc(/C=C/c5ccc(-c6ccc(COCCOCCOC)cn6)nc5)cc4)cc4c3c1C(=O)N(CCCOC)C4=O)C(=O)N(CCCOC)C2=O.[Zn+2] [[Zn(4)]^2+] | 600 (A) nm | 360 (D) nm | 633 | 21 10^3 M^-1 cm^-1 | 55 10^3 M^-1 cm^-1 | – | – | – | φf [1, 6]: 0.31^e |
| COCCCN1C(=O)c2cc(NCCOc3ccc(/C=C/c4ccc(-c5ccc(COCCOCCOC)cn5)nc4)cc3)c3c4c(cc(NCCCCC[P+](c5ccccc5)(c5ccccc5)c5ccccc5)c(c24)C1=O)C(=O)N(CCCOC)C3=O.[I-] [Compound (5)] | 602 (A) nm | 347 (D) nm | 633 | 23 10^3 M^-1 cm^-1 | 81 10^3 M^-1 cm^-1 | 0.28^c | – | – | red channel fluorescence upon addition of supplemental zinc(II) in the growth media [2]: increase in intramolecular fluorescence; colocalization with mitochondrial CFP (mCerulean3 TOMM-20) ([3]; 30 min incubation, (5) 1.8 μM, (4) 6.0 μM, (3) 9.0 μM, (2) 52 μM): localizes selectively in mitochondria; overall intracellular fluorescence intensity ([3]; red channel λex 543 nm, λem 580-680 nm): surprisingly strong intracellular fluorescence |
| COCCCNc1cc2c3c(c(NCCCCC[P+](c4ccccc4)(c4ccccc4)c4ccccc4)cc4c3c1C(=O)N(CCCOC)C4=O)C(=O)N(CCCOC)C2=O [Compound (3)] | – | – | 639 | – | – | 0.48^c | 607 | 23 10^3 M^-1 cm^-1 | – |
| COCCCNc1cc2c3c(c(NCCCOC)cc4c3c1C(=O)N(CCCOC)C4=O)C(=O)N(CCCOC)C2=O [Compound (2)] | – | – | 638 | – | – | 0.51^c | 607 | 22 10^3 M^-1 cm^-1 | – |
| COc1ccc(/C=C/c2ccc(-c3ccc(C)cn3)nc2)cc1 [(1), 5-(4-methoxystyryl)-5′-methyl-2,2′-bipyridine] | – | – | 428 | – | – | – | 345 | 34 10^3 M^-1 cm^-1 | φf ([1]; λex = 365 nm): 0.28^a; pKa [4]: 4.6 |
| COc1ccc(/C=C/c2ccc(-c3ccc(C)cn3)nc2)cc1.[Zn+2] [[Zn(1)]^2+] | – | – | – | – | – | – | – | – | change of fluorescence intensity with pH ([4]; range of pH 6.0-9.0, intensity at 460 nm, λex 380 nm): little change; φf ([5]; λex = 365 nm): 0.46^a; λabs [5]: 374 nm; λem [5]: 528 nm; ∈/10^3 [5]: 28 10^3 M^-1 cm^-1 |
| COCCCN1C(=O)c2cc(NCCOc3ccc(/C=C/c4ccc(-c5ccc(COCCOCCOC)cn5)nc4)cc3)c3c4c(cc(NCCCCC[P+](c5ccccc5)(c5ccccc5)c5ccccc5)c(c24)C1=O)C(=O)N(CCCOC)C3=O.I.[Zn+2] [[Zn(5)]^2+] | 602 (A) nm | 363 (D) nm | 633 | 21 10^3 M^-1 cm^-1 | 67 10^3 M^-1 cm^-1 | – | – | – | φf [1, 6]: 0.29^e |
